melting point: 154 to 156 °C
Structure (SMILES): Cc1cc(C(F)(C(F)(F)F)C(F)(F)F)ccc1N1C(=O)c2cccc(Cl)c2C1NC(C)(C)CS(C)(=O)=O (stereo not shown) [Synthesis Example 2, 4-chloro-3-(2-methanesulfonyl-1,1-dimethylethylamino)-2-[2-methyl-4-(1,2,2,2-tetrafluoro-1-trifluoromethylethyl)phenyl]-2,3-dihydroisoindol-1-one]

— patent US20070031514A1, “Use of isoindolinone derivatives as insecticides” (priority 2003, published 2007)
